Measured values as given in paper PMC11876601 (Molecular Systems Biology, 2025).
Where two headings read alike, the source gives them in different places.

Tests used:
PRKX = system: PRKX; design: method as in Klaeger et al. (2017); details: lysate 4 cell line mix (Colo205, K-562, MV-4-11, and SK-N-BE(2)), Kinobeads y, ref Klaeger et al. (2017); cited from earlier work
WEE1 = details: WEE1, 5 cell line mix lysate, Kinobeads ε, ref Reinecke et al. (2023), cited from earlier work
IRAK3 = details: IRAK3, 5 cell line mix lysate, Kinobeads ε, ref Reinecke et al. (2023), cited from earlier work
ULK1 = system: ULK1; design: method as in Reinecke et al. (2023); details: ULK1, 5 cell line mix lysate, Kinobeads ε, ref Reinecke et al. (2023), cited from earlier work
TP53RK ; Q96S44 = TP53RK ; Q96S44 (Homo sapiens, UniProt Q96S44); test: biochemical; design: species or system AsPC-1; Kinobeads competition pulldown in AsPC-1 lysate with LC-MS/MS label-free quantification; apparent Kd
Method: (§1) This was followed by incubation with Kinobeads ε (17.5 µl of settled beads) for 30 min at 4 °C to enrich kinases. […] Enriched proteins were reduced with 50 mM DTT in 8 M urea, 40 mM Tris-HCl, pH 7.4 for 30 min at room temperature, and alkylated with 55 mM chloroacetamide. After reducing the urea concentration to 1–2 M, proteins were digested with trypsin at 37 °C for 16 h. Subsequently, eluted peptides were desalted using SepPak tC18 µElution plates (Waters), freeze-dried by vacuum centrifugation, and stored at −20 °C. Proteins were filtered by potential contaminants, reversed hits and proteins identified only by site. Residual binding of proteins was calculated from LFQ intensities as the ratio between drug doses and vehicle. […] Only kinases quantified with at least 4 unique peptides in the vehicle experiment were considered. Potential targets were further curated through manual inspection of dose-dependent reduction in MS/MS and unique peptide counts.

FN3KRP ; Q9HA64 = FN3KRP ; Q9HA64 (Homo sapiens, UniProt Q9HA64); test: biochemical; design: species or system AsPC-1; Kinobeads competition pulldown in AsPC-1 lysate with LC-MS/MS label-free quantification; apparent Kd
Method: as §1

CDC42BPG ; Q6DT37 = CDC42BPG ; Q6DT37 (Homo sapiens, UniProt Q6DT37); test: biochemical; design: species or system AsPC-1; Kinobeads competition pulldown in AsPC-1 lysate with LC-MS/MS label-free quantification; apparent Kd
Method: as §1

Suit2-07 cells = test: Drug combination viability screen (ATPlite, 72 h); type: cell-based, human; design: AUC: unit not given beside the values; details: for EC50: Homo sapiens;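 as to AUC: area under vehicle-normalized viability curve scaled 0 to 100 percent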;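 as to Curve bottom: fraction of vehicle control viability from four-parameter log-logistic fit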
Method: Cell viability was assessed by measuring ATP levels to indicate metabolic activity.
Afterward, small amounts were transferred to 384-well intermediate plates (Greiner Bio-One GmbH, Germany). […] For drug combination screening, 1000 to 5000 cells were seeded into 384-well plates (CulturPlate™, Perkin Elmer, MA, USA) using a Multidrop™ Combi Reagent Dispenser (Thermo Scientific, MA, USA) in 50 µl medium per well 24 h prior to drug treatment (seeding densities see Appendix Table S1). […] The final DMSO concentration in each well was 0.2%. […] Eight wells per plate without library drug served as negative controls, and sixteen wells per plate containing 5 µM Staurosporine served as positive controls. Control plates not containing any drug were used to correct for incubation effects, and data quality was assessed by calculation of Z-prime of positive and negative controls according to1 Z-prime=1−3SDpos+3SDneg/[…] where SD is the standard deviation. […] Dose–response curves from the experimental and hypothetical data were compared, and shifts in AUC were used to describe combination effects (AUC∆ = AUChypothetical − AUCexperimental). […] Only combinations with R^2 > 0.8 in both conditions were considered in the synergy analysis.

[1] = molecular target: all target kinases identified with the Kinobeads technology; test: Kinobeads competition pulldown in AsPC-1 lysate, all kinases; type: binding, human; details: all targets other than ATR and ACVR2; read-out: KDapp of all other targets
Method: This was followed by incubation with Kinobeads ε (17.5 µl of settled beads) for 30 min at 4 °C to enrich kinases. […] Enriched proteins were reduced with 50 mM DTT in 8 M urea, 40 mM Tris-HCl, pH 7.4 for 30 min at room temperature, and alkylated with 55 mM chloroacetamide. After reducing the urea concentration to 1–2 M, proteins were digested with trypsin at 37 °C for 16 h. Subsequently, eluted peptides were desalted using SepPak tC18 µElution plates (Waters), freeze-dried by vacuum centrifugation, and stored at −20 °C.
For LC-MS/MS, dried peptides were reconstituted in 0.1% formic acid and analyzed on a Dionex Ultimate3000 nano HPLC (Thermo Scientific) coupled to an Orbitrap Fusion Tribrid mass spectrometer (Thermo Scientific), which was run in data-dependent mode. […]
Oxidized methionine and N-terminal acetylation were set as variable modification, and cysteine carbamidomethylation was set as fixed modification. Label-free quantification (LFQ) and match-between-runs were enabled. […]
Proteins were filtered by potential contaminants, reversed hits and proteins identified only by site. Residual binding of proteins was calculated from LFQ intensities as the ratio between drug doses and vehicle. […] Only kinases quantified with at least 4 unique peptides in the vehicle experiment were considered. […]

Chain of TP53RK ; Q96S44 (Q96S44 whole entry): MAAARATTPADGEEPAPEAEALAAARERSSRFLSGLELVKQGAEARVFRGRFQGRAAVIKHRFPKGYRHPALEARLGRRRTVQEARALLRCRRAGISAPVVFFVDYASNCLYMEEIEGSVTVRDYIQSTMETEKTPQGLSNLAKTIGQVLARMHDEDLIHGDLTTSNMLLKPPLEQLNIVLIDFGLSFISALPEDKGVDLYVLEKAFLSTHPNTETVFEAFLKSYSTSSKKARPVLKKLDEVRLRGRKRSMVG
Chain of FN3KRP ; Q9HA64 (Q9HA64 whole entry): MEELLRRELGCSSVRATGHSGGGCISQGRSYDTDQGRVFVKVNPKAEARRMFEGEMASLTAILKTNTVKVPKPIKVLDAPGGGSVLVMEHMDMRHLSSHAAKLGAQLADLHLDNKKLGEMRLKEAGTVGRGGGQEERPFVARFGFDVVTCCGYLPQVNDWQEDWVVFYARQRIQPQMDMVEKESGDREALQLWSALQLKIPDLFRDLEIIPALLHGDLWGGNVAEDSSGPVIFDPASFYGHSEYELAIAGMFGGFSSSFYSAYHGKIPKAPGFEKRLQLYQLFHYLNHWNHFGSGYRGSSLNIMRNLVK
Chain of CDC42BPG ; Q6DT37 (Q6DT37 whole entry): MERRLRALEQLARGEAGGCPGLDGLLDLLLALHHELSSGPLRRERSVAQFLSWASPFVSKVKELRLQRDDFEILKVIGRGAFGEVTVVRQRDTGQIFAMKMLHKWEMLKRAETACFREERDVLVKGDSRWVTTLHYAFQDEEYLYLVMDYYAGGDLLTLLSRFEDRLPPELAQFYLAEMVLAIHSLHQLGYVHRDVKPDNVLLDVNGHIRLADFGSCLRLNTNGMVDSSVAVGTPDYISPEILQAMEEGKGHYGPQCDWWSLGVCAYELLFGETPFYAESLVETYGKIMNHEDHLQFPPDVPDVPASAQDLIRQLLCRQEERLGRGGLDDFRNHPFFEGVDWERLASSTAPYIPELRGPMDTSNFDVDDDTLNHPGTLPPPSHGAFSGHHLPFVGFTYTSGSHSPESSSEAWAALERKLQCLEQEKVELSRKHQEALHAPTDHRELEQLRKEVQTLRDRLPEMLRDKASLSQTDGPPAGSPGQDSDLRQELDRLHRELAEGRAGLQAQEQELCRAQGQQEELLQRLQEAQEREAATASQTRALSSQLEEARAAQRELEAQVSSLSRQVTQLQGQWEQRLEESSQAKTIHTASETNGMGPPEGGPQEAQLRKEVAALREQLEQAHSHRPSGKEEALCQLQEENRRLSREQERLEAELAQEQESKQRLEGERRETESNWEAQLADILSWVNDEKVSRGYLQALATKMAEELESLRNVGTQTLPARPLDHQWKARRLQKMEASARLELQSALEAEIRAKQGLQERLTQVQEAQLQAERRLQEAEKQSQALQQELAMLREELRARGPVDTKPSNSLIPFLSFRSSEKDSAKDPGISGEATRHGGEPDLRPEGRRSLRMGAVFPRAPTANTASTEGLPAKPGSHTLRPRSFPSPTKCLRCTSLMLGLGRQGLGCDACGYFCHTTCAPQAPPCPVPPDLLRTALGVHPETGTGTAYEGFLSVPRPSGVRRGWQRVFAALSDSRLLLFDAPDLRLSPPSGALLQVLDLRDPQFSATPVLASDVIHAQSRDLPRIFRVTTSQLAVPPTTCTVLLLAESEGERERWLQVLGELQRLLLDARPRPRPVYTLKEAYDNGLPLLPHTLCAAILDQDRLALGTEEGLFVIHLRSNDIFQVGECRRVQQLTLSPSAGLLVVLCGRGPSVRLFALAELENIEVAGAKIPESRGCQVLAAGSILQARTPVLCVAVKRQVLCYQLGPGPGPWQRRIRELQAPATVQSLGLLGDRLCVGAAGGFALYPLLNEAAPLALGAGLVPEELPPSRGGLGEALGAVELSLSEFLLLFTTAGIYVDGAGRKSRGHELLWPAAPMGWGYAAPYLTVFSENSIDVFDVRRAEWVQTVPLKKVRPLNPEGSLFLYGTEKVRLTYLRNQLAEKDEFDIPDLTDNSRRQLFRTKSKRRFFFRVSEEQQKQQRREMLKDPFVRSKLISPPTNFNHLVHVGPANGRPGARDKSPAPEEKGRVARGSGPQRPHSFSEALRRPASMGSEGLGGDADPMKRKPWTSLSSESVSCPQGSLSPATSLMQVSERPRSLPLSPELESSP

COc1cc(N2CCC(N3CCN(C)CC3)CC2)ccc1Nc1ncc(Cl)c(Nc2ccccc2P(C)(C)=O)n1 [Brigatinib]
EC50 (WEE1): 1950 nM
pKDapp (WEE1): 5.91
Kd (WEE1; read-out: KDapp): 1240 nM
EC50 (IRAK3): 1150 nM
pKDapp (IRAK3): 6.31
Kd (IRAK3; read-out: KDapp): 494 nM
EC50 (ULK1): 56.7 nM
pKDapp (ULK1): 7.42
Kd (ULK1; read-out: KDapp): 37.9 nM

Nc1nn2cc(F)cnc2c1C(=O)Nc1cncc(F)c1N1CCC(C(=O)N2CCN(C3COC3)CC2)CC1 [Gartisertib]
Kd (TP53RK ; Q96S44): 113 nM
Kd (FN3KRP ; Q9HA64): 358 nM
Kd (CDC42BPG ; Q6DT37): 16.9 nM

Nc1ccn([C@@H]2O[C@H](CO)[C@@H](O)C2(F)F)c(=O)n1 [GEM, Gemcitabine]
EC50 (Suit2-07 cells; read-out: EC50): 7.58 nM
EC50 (Suit2-07 cells; read-out: pEC50 (converted)): 7.59 nM
Reponse (Suit2-07 cells; Suit2-07, R1, 13.72 nM): 2323360
Reponse (Suit2-07 cells; Suit2-07, R1, 41.15 nM): 1614080
Reponse (Suit2-07 cells; Suit2-07, R1, […] nM): 1487640
Reponse (Suit2-07 cells; Suit2-07, R1, 370.37 nM): 1265760
Reponse (Suit2-07 cells; Suit2-07, R1, 1111.11 nM): 1242400
Reponse (Suit2-07 cells; Suit2-07, R1, 3333.33 nM): 1298400
Reponse (Suit2-07 cells; Suit2-07, R1, 10000 nM): 913840
Reponse (Suit2-07 cells; Suit2-07, replicate R2, dose 13.72 nM, raw signal): 3086160
Reponse (Suit2-07 cells; Suit2-07, replicate R2, dose 41.15 nM, raw signal): 2294600
Reponse (Suit2-07 cells; Suit2-07, replicate R2, dose 123.46 nM, raw signal): 1746480
Reponse (Suit2-07 cells; Suit2-07, replicate R2, dose 370.37 nM, raw signal): 1730640
Reponse (Suit2-07 cells; Suit2-07, replicate R2, dose 1111.11 nM, raw signal): 1568520
Reponse (Suit2-07 cells; Suit2-07, replicate R2, dose 3333.33 nM, raw signal): 1439120
Reponse (Suit2-07 cells; Suit2-07, replicate R2, dose 10000 nM, raw signal): 1173920
Curve bottom (Suit2-07 cells; Suit2-07, GEM curve fit): 0.19
Curve effect size (Suit2-07 cells; Suit2-07, GEM curve fit): 0.81
Curve slope (Suit2-07 cells; Suit2-07, GEM curve fit): 1.96
Curve top (Suit2-07 cells; Suit2-07, GEM curve fit): 1.00
AUC (Suit2-07 cells; Suit2-07, GEM curve fit, in %): 46.93

CNCc1ccc(-c2cc(-c3nc(-c4ccc(S(=O)(=O)C(C)C)cc4)cnc3N)on2)cc1 [Berzosertib]
Kd [1]: > 10 nM
